This note sets out measurements from patent US20090018134A1, “Compounds - 945” (AstraZeneca AB, priority 2007, published 2009).

For orientation: pIC50 means the IC50 on a negative log10 scale, so that one unit is a factor of ten.

pIC50: −log10 of the molar value.

The target of experiment [1] is T1, mTOR (Homo sapiens, UniProt P42345).
T1 construct: FLAG; made in house
Briefly: mTOR Kinase Assay (Echo). Format: biochemical.

Experiment [2] concerns the target T1, mTOR. Briefly: In Vitro mTOR Kinase Assay (Echo), Test (a)(ii). Format: biochemical. The conditions noted are these: table of enzyme assay Test (a)(ii); read-out: Test (a)(ii) IC50. In outline:
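Enzyme: HEK293-expressed, FLAG-purified mTOR C-terminal fragment (aa 1362-2549). Rxn 2 h RT with biotinylated peptide, stopped with EDTA 50 mM/BSA/Tris pH 7.4. Detection: T389 phospho-antibody AlphaScreen, 680 nm excitation. IC50.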

T1 sequence (P42345 1362-2549): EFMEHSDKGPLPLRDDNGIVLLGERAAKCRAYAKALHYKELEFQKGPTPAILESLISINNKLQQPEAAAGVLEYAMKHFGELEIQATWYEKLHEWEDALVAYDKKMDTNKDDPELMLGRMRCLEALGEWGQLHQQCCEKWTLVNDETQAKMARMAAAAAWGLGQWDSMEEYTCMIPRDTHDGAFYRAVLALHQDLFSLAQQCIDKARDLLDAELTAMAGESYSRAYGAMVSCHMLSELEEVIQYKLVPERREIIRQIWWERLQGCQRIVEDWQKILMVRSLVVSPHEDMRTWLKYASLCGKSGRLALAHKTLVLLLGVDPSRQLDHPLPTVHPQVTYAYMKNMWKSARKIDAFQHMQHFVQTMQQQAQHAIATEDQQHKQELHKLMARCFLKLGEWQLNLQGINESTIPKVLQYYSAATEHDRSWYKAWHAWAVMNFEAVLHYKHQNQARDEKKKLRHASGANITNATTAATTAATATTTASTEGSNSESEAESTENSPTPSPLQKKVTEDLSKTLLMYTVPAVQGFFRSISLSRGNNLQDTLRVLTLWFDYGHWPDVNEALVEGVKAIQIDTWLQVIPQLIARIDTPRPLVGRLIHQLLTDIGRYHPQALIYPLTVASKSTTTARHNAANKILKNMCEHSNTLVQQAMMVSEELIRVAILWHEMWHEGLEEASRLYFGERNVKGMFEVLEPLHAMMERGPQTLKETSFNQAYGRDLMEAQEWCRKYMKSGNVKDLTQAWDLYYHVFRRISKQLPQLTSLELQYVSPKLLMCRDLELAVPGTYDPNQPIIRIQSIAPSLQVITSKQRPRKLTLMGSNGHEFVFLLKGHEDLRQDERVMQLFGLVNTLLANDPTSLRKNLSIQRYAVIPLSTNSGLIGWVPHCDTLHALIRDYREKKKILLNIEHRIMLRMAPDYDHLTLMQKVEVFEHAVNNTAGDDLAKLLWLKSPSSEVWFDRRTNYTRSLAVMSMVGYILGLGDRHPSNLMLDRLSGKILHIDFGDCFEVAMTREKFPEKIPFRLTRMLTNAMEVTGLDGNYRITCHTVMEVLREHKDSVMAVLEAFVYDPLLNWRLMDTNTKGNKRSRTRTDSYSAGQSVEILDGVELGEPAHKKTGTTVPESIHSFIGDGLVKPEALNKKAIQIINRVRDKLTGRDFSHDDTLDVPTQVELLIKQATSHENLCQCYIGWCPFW

Consider `C[C@H]1COCCN1c1cc(C2(S(=O)(=O)c3ccccn3)CC2)nc(-c2ccc(NC(=O)NCCO)cc2)n1` [Example 28g, 3-(2-hydroxyethyl)-1-[4-[4-[(3S)-3-methylmorpholin-4-yl]-6-(1-pyridin-2-ylsulfonylcyclopropyl)pyrimidin-2-yl]phenyl]urea], for which the values for the pIC50 on mTOR [1] and at mTOR [2] were 7.93 and 8.93, respectively.
Take `C[C@H]1COCCN1c1cc(C2(S(=O)(=O)c3ccccn3)CCC2)nc(-c2ccc(NC(=O)Nc3cnn(C)c3)cc2)n1` [Example 36aj, 1-[4-[4-[(3S)-3-methylmorpholin-4-yl]-6-(1-pyridin-2-ylsulfonylcyclobutyl)pyrimidin-2-yl]phenyl]-3-(1-methylpyrazol-4-yl)urea]: the pIC50 at mTOR [1] and on mTOR [2] was 8.59 in each case.
With `O=C(Nc1ccc(-c2nc(N3CCOCC3)cc(C3(S(=O)(=O)c4ccc(F)cc4)CC3)n2)cc1)NC1CC1` [Example 36al, 3-cyclopropyl-1-[4-[4-[1-(4-fluorophenyl)sulfonylcyclopropyl]-6-morpholin-4-ylpyrimidin-2-yl]phenyl]urea], the pIC50 on mTOR [1] is 7.73; at mTOR [2], 7.79.
On to `N#CCCNC(=O)Nc1ccc(-c2nc(N3CCOCC3)cc(C3(S(=O)(=O)c4ccc(F)cc4)CC3)n2)cc1` [Example 36am, 3-(2-cyanoethyl)-1-[4-[4-[1-(4-fluorophenyl)sulfonylcyclopropyl]-6-morpholin-4-ylpyrimidin-2-yl]phenyl]urea], for which the pIC50 against mTOR [1] is 7.56; at mTOR [2], 7.59.
For `Cc1cnc(NC(=O)Nc2ccc(-c3nc(N4CCOC[C@@H]4C)cc(C4(S(C)(=O)=O)CC4)n3)cc2)cn1` [Example 36az, 3-[4-[4-[(3S)-3-methylmorpholin-4-yl]-6-(1-methylsulfonylcyclopropyl)pyri-midin-2-yl]phenyl]-1-(5-methylpyrazin-2-yl)urea], the negative logarithm of the IC50 (pIC50) is 8.83 at mTOR [1] and 8.98 on mTOR [2].
As to `C[C@H]1COCCN1c1cc(C2(S(C)(=O)=O)CC2)nc(-c2ccc(NC(=O)Nc3ncco3)cc2)n1` [Example 36ba, 1-[4-[4-[(3S)-3-methylmorpholin-4-yl]-6-(1-methylsulfonylcyclopropyl)pyri-midin-2-yl]phenyl]-3-(1,3-oxazol-2-yl)urea], the pIC50 against mTOR [1] was 8.51; on mTOR [2], 8.78.
For `C[C@H]1COCCN1c1cc(C2(S(C)(=O)=O)CC2)nc(-c2ccc(NC(=O)NCCCO)cc2)n1` [Example 36bb, 3-(3-hydroxypropyl)-1-[4-[4-[(3S)-3-methylmorpholin-4-yl]-6-(1-methylsulfonylcyclopropyl)pyri-midin-2-yl]phenyl]urea], the pIC50 is 7.69 at mTOR [1] and 8.29 at mTOR [2].
With `C[C@H]1COCCN1c1cc(C2(S(=O)(=O)c3ccccc3)CC2)nc(-c2ccc(NC(=O)NC3CC3)cc2)n1` [Example 36bc, 1-[4-[4-[1-(benzenesulfonyl)cyclopropyl]-6-[(3S)-3-methylmorpholin-4-yl]pyrimidin-2-yl]phenyl]-3-cyclopropylurea], the pIC50 against mTOR [1] was 8.69; at mTOR [2] it was 8.55.
For `CCNC(=O)Nc1ccc(-c2nc(N3CCOC[C@@H]3C)cc(C3(S(=O)(=O)c4ccccc4)CC3)n2)cc1` [Example 36bg, 3-[4-[4-[1-(benzenesulfonyl)cyclopropyl]-6-[(3S)-3-methylmorpholin-4-yl]pyrimidin-2-yl]phenyl]-1-ethylurea] the same measures were 9.04 and 8.72.
For `C[C@H]1COCCN1c1cc(C2(S(=O)(=O)c3ccccc3)CC2)nc(-c2ccc(NC(=O)NCCO)cc2)n1` [Example 36bh, 1-[4-[4-[1-(benzenesulfonyl)cyclopropyl]-6-[(3S)-3-methylmorpholin-4-yl]pyrimidin-2-yl]phenyl]-3-(2-hydroxyethyl)urea] the same measures were 8.92 and 8.86.
Turning to `CNC(=O)Nc1ccc(-c2nc(N3CCOC[C@@H]3C)cc(C3(S(=O)(=O)c4ccccc4)CC3)n2)cc1` [Example 36bj, 1-[4-[4-[1-(benzenesulfonyl)cyclopropyl]-6-[(3S)-3-methylmorpholin-4-yl]pyrimidin-2-yl]phenyl]-3-methylurea], the pIC50 on mTOR [1] was 9.21; on mTOR [2], 8.97.
For the compound `C[C@H]1COCCN1c1cc(C2(S(=O)(=O)c3ccccc3)CC2)nc(-c2ccc(NC(=O)NCCCO)cc2)n1` [Example 36bl, 1-[4-[4-[1-(benzenesulfonyl)cyclopropyl]-6-[(3S)-3-methylmorpholin-4-yl]pyrimidin-2-yl]phenyl]-3-(3-hydroxypropyl)urea], the results for the pIC50 on mTOR [1] and at mTOR [2] were 8.68 and 8.48, respectively.
As to `C[C@H]1COCCN1c1cc(C2(S(=O)(=O)c3ccccc3)CCC2)nc(-c2ccc(NC(=O)NC3CC3)cc2)n1` [Example 36bs, 1-[4-[4-[1-(benzenesulfonyl)cyclobutyl]-6-[(3S)-3-methylmorpholin-4-yl]pyrimidin-2-yl]phenyl]-3-cyclopropylurea], the negative logarithm of the IC50 (pIC50) on mTOR [1] is 8.79; on mTOR [2], 8.58.
Consider `C[C@H]1COCCN1c1cc(C2(S(=O)(=O)c3ccccc3)CCC2)nc(-c2ccc(NC(=O)NCCO)cc2)n1` [Example 36bt, 1-[4-[4-[1-(benzenesulfonyl)cyclobutyl]-6-[(3S)-3-methylmorpholin-4-yl]pyrimidin-2-yl]phenyl]-3-(2-hydroxyethyl)urea], for which the pIC50 is 8.98 against mTOR [1] and 8.73 at mTOR [2].
Regarding `CNC(=S)Nc1ccc(-c2nc(N3CCOC[C@@H]3C)cc(C3(S(=O)(=O)c4ccccc4)CC3)n2)cc1` [Example 37ab, 1-[4-[4-[1-(benzenesulfonyl)cyclopropyl]-6-[(3S)-3-methylmorpholin-4-yl]pyrimidin-2-yl]phenyl]-3-methylthiourea], the pIC50 against mTOR [1] was 8.52; on mTOR [2], 8.31.
For `C[C@H]1COCCN1c1cc(C2(S(=O)(=O)c3ccccc3)CC2)nc(-c2ccc(NC(=S)NCc3ncc[nH]3)cc2)n1` [Example 37ac, 1-[4-[4-[1-(benzenesulfonyl)cyclopropyl]-6-[(3S)-3-methylmorpholin-4-yl]pyrimidin-2-yl]phenyl]-3-(1H-imidazol-2-ylmethyl)thiourea], the figures for the pIC50 against mTOR [1] and at mTOR [2] were 7.53 and 7.36, respectively.
For `C[C@H]1COCCN1c1cc(C2(S(=O)(=O)CCCO)CC2)nc(-c2ccc(NC(=S)NC3CC3)cc2)n1` [Example 37h, 3-cyclopropyl-1-[4-[4-[1-(3-hydroxypropylsulfonyl)cyclopro-pyl]-6-[(3S)-3-methylmorpholin-4-yl]pyrimidin-2-yl]phenyl]thiourea], the pIC50 on mTOR [1] is 7.88; at mTOR [2] it was 7.70.
For the compound `C[C@H]1COCCN1c1cc(C2(S(=O)(=O)CCCO)CC2)nc(-c2ccc(NC(=S)NCCO)cc2)n1` [Example 37i, 3-(2-hydroxyethyl)-1-[4-[4-[1-(3-hydroxypropylsulfonyl)cyclopro-pyl]-6-[(3S)-3-methylmorpholin-4-yl]pyrimidin-2-yl]phenyl]thiourea], the results for the pIC50 at mTOR [1] and at mTOR [2] were 8.51 and 8.42, respectively.
As for `CCNC(=S)Nc1ccc(-c2nc(N3CCOC[C@@H]3C)cc(C3(S(=O)(=O)CCCO)CC3)n2)cc1` [Example 37k, 1-ethyl-3-[4-[4-[1-(3-hydroxypropylsulfonyl)cyclopro-pyl]-6-[(3S)-3-methylmorpholin-4-yl]pyrimidin-2-yl]phenyl]thiourea], the results for the pIC50 on mTOR [1] and on mTOR [2] were 7.94 and 7.79, respectively.
